Measurements: patent publication US10414811B2, “Protease-resistant lipidated GLP-1 analogs” (MEDIMMUNE LIMITED, priority 2015, dated 2019)
Where two headings read alike, the source gives them in different places. Numbered stars: 1 amine (or outer) side, 2 acyl side, 3 side chain; on linkers, the order of the positions; unused ones are H or OH. Square brackets hold non-standard residues; d marks the D form. Side chains are listed from the residue outwards. Peptide text beside a SMILES is read from it. * marks the point of attachment. γGlu = O=C(O)[C@H](CCC(=O)[*:2])N[*:1]; αMeF = C[C@](N)(Cc1ccccc1)C(=O)O; αMeK = C[C@](N)(CCCCN)C(=O)O; Lauroyl = CCCCCCCCCCCC(=O)*; αMeS = C[C@](N)(CO)C(=O)O; AEEA = NCCOCCOCC(=O)O; Aib = CC(C)(N)C(=O)O

Tests used:
Type in all cases: cell-based
Conditions in all cases: tris-lipidated peptides
[1] = target: T1, human GLP-1 receptor (GLP-1R) (Homo sapiens, UniProt P43220); experiment: cAMP assay, human GLP-1R cells
T1 construct: expressed in transfected cells
T1 sequence (P43220 24-463): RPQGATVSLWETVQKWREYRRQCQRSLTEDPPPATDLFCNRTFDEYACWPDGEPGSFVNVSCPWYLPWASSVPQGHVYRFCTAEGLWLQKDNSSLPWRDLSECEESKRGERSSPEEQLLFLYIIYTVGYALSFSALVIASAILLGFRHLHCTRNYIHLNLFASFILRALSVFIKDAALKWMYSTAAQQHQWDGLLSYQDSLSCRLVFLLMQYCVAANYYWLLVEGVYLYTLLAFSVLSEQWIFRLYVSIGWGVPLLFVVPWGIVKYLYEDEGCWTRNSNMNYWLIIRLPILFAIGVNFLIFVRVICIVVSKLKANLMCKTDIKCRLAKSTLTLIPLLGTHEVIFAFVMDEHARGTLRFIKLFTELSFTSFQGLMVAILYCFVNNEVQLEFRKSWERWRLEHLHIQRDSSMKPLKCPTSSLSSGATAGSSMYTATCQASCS
Summary of the method: (§1)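 Peptide-stimulated cAMP measured by two-step HTRF after a 30 min room-temperature incubation with receptor-expressing cells (hGLP-1R, hGIPR at 1×10^5 cells/ml; hGCGR at 2×10^5 cells/ml). Duplicate dilutions; EC50 from 4-parameter logistic fit of % Delta F.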

[2] = target: T2, human glucagon receptor (GCGR) (Homo sapiens, UniProt P47871); experiment: cAMP assay, human GCGR cells
T2 construct: expressed in transfected cells
T2 sequence (P47871 26-477): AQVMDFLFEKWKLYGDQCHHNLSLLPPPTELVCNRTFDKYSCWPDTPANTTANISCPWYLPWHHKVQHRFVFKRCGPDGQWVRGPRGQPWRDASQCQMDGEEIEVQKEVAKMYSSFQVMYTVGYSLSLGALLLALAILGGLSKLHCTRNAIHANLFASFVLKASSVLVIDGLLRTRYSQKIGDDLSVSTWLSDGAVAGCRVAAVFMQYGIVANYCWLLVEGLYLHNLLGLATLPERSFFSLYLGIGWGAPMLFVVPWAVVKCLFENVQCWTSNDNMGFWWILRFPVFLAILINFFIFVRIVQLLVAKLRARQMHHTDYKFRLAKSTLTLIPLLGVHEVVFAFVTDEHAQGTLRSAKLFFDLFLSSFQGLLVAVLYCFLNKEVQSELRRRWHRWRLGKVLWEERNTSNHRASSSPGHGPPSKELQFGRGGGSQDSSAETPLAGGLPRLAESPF
Summary of the method: as §1

[3] = target: T3, human glucose-dependent insulinotropic peptide receptor (GIPR) (Homo sapiens, UniProt P48546); experiment: cAMP assay, human GIPR cells
T3 construct: expressed in transfected cells
T3 sequence (P48546 22-466): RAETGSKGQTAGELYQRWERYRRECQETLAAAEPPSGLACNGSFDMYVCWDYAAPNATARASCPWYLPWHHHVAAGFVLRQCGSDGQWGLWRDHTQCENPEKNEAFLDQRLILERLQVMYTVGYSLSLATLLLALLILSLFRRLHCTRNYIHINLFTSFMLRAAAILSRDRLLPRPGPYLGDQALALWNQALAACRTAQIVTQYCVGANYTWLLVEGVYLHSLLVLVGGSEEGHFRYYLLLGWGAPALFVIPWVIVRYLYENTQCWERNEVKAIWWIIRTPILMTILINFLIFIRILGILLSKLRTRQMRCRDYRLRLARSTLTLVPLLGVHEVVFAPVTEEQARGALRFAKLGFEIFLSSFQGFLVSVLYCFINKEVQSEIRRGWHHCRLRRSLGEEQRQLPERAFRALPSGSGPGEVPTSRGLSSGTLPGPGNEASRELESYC
Summary of the method: as §1

[4] = mean of n1 and n2, read-out: Primary assay EC50 Mean pM GLP-1R
[5] = replicate n1, read-out: Primary assay EC50 GLP-1R n1
[6] = replicate n2, read-out: Primary assay EC50 GLP-1R n2
[7] = first replicate, read-out: Primary assay EC50 Gluc-R (n1)
[8] = first replicate, read-out: Primary assay EC50 GIP-R (n1)
[9] = second replicate, read-out: Primary assay EC50 Gluc-R (n2)
[10] = second replicate, read-out: Primary assay EC50 GIP-R (n2)

| SMILES | EC50 [1, 4] [pM] | EC50 [1, 5] [pM] | EC50 [1, 6] [pM] | EC50 [2, 7] [nM] | EC50 [3, 8] [nM] | EC50 [2, 9] [nM] | EC50 [3, 10] [nM] |
| --- | --- | --- | --- | --- | --- | --- | --- |
| CCCCCCCCCCCC(=O)N[C@@H](CCC(=O)NCCOCCOCC(=O)NCCOCCOCC(=O)NCCCC[C@H](NC(=O)[C@H](CCC(=O)O)NC(=O)[C@H](CCCCNC(=O)COCCOCCNC(=O)COCCOCCNC(=O)CC[C@H](NC(=O)CCCCCCCCCCC)C(=O)O)NC(=O)[C@H](Cc1ccc(O)cc1)NC(=O)[C@H](CO)NC(=O)[C@](C)(CO)NC(=O)[C@@H](NC(=O)[C@H](CC(=O)O)NC(=O)[C@H](CO)NC(=O)[C@@H](NC(=O)[C@](C)(Cc1ccccc1)NC(=O)[C@H](CO)NC(=O)CNC(=O)[C@H](CCC(=O)O)NC(=O)C(C)(C)NC(=O)[C@@H](N)Cc1c[nH]cn1)[C@@H](C)O)C(C)C)C(=O)N[C@@H](CCC(=O)O)C(=O)N[C@@H](C)C(=O)N[C@@H](C)C(=O)N[C@@](C)(CCCCN)C(=O)N[C@@H](CCC(=O)O)C(=O)N[C@@H](Cc1ccccc1)C(=O)N[C@H](C(=O)N[C@@H](CCCCNC(=O)COCCOCCNC(=O)COCCOCCNC(=O)CC[C@H](NC(=O)CCCCCCCCCCC)C(=O)O)C(=O)N[C@@H](Cc1ccccc1)C(=O)N[C@H](C(=O)N[C@H](C(=O)N[C@@H](CCC(=O)O)C(=O)NCC(=O)NCC(N)=O)C(C)C)C(C)C)[C@@H](C)CC)C(=O)O [compound 451] (H-H[Aib]EGS[αMeF]TSDV[αMeS]SYK([AEEA-AEEA-γGlu-Lauroyl])EK([AEEA-AEEA-γGlu-Lauroyl])EAA[αMeK]EFIK([AEEA-AEEA-γGlu-Lauroyl])FVVEGG-NH2; N-terminus assumed) | 93.4 | 28.8 | 158 | 19.7 | 19.7 | – | – |
| CCCCCCCCCCCC(=O)N[C@@H](CCC(=O)NCCOCCOCC(=O)NCCOCCOCC(=O)NCCCC[C@H](NC(=O)CNC(=O)[C@H](CCC(=O)O)NC(=O)[C@H](CCCCNC(=O)COCCOCCNC(=O)COCCOCCNC(=O)CC[C@H](NC(=O)CCCCCCCCCCC)C(=O)O)NC(=O)[C@H](Cc1ccc(O)cc1)NC(=O)[C@H](CO)NC(=O)[C@](C)(CO)NC(=O)[C@@H](NC(=O)[C@H](CC(=O)O)NC(=O)[C@H](CO)NC(=O)[C@@H](NC(=O)[C@](C)(Cc1ccccc1)NC(=O)[C@H](CO)NC(=O)CNC(=O)[C@H](CCC(=O)O)NC(=O)C(C)(C)NC(=O)[C@@H](N)Cc1c[nH]cn1)[C@@H](C)O)C(C)C)C(=O)N[C@@H](C)C(=O)N[C@@H](C)C(=O)N[C@@](C)(CCCCN)C(=O)N[C@@H](CCC(=O)O)C(=O)N[C@@H](Cc1ccccc1)C(=O)N[C@H](C(=O)N[C@@H](CCCCNC(=O)COCCOCCNC(=O)COCCOCCNC(=O)CC[C@H](NC(=O)CCCCCCCCCCC)C(=O)O)C(=O)N[C@@H](Cc1ccccc1)C(=O)N[C@H](C(=O)N[C@H](C(=O)N[C@@H](CCC(=O)O)C(=O)NCC(=O)NCC(N)=O)C(C)C)C(C)C)[C@@H](C)CC)C(=O)O [compound 452] (H-H[Aib]EGS[αMeF]TSDV[αMeS]SYK([AEEA-AEEA-γGlu-Lauroyl])EGK([AEEA-AEEA-γGlu-Lauroyl])AA[αMeK]EFIK([AEEA-AEEA-γGlu-Lauroyl])FVVEGG-NH2; N-terminus assumed) | 80.9 | 85.7 | 76.1 | – | – | 19.7 | 19.7 |
| CCCCCCCCCCCC(=O)N[C@@H](CCC(=O)NCCOCCOCC(=O)NCCOCCOCC(=O)NCCCC[C@H](NC(=O)[C@H](CCC(=O)O)NC(=O)CNC(=O)[C@H](CCC(=O)O)NC(=O)[C@H](CCCCNC(=O)COCCOCCNC(=O)COCCOCCNC(=O)CC[C@H](NC(=O)CCCCCCCCCCC)C(=O)O)NC(=O)[C@H](Cc1ccc(O)cc1)NC(=O)[C@H](CO)NC(=O)[C@](C)(CO)NC(=O)[C@@H](NC(=O)[C@H](CC(=O)O)NC(=O)[C@H](CO)NC(=O)[C@@H](NC(=O)[C@](C)(Cc1ccccc1)NC(=O)[C@H](CO)NC(=O)CNC(=O)[C@H](CCC(=O)O)NC(=O)C(C)(C)NC(=O)[C@@H](N)Cc1c[nH]cn1)[C@@H](C)O)C(C)C)C(=O)N[C@@H](C)C(=O)N[C@@](C)(CCCCN)C(=O)N[C@@H](CCC(=O)O)C(=O)N[C@@H](Cc1ccccc1)C(=O)N[C@H](C(=O)N[C@@H](CCCCNC(=O)COCCOCCNC(=O)COCCOCCNC(=O)CC[C@H](NC(=O)CCCCCCCCCCC)C(=O)O)C(=O)N[C@@H](Cc1ccccc1)C(=O)N[C@H](C(=O)N[C@H](C(=O)N[C@@H](CCC(=O)O)C(=O)NCC(=O)NCC(N)=O)C(C)C)C(C)C)[C@@H](C)CC)C(=O)O [compound 453] (H-H[Aib]EGS[αMeF]TSDV[αMeS]SYK([AEEA-AEEA-γGlu-Lauroyl])EGEK([AEEA-AEEA-γGlu-Lauroyl])A[αMeK]EFIK([AEEA-AEEA-γGlu-Lauroyl])FVVEGG-NH2) | 114 | 62.9 | 165 | – | 19.5 | 19.5 | – |
| CCCCCCCCCCCC(=O)N[C@@H](CCC(=O)NCCOCCOCC(=O)NCCOCCOCC(=O)NCCCC[C@H](NC(=O)[C@H](C)NC(=O)[C@@H](NC(=O)[C@H](Cc1ccccc1)NC(=O)[C@H](CCC(=O)O)NC(=O)[C@](C)(CCCCN)NC(=O)[C@H](C)NC(=O)[C@H](CCCCNC(=O)COCCOCCNC(=O)COCCOCCNC(=O)CC[C@H](NC(=O)CCCCCCCCCCC)C(=O)O)NC(=O)[C@H](CCC(=O)O)NC(=O)CNC(=O)[C@H](CCC(=O)O)NC(=O)[C@H](CC(C)C)NC(=O)[C@H](CCCCNC(=O)COCCOCCNC(=O)COCCOCCNC(=O)CC[C@H](NC(=O)CCCCCCCCCCC)C(=O)O)NC(=O)[C@H](CO)NC(=O)[C@](C)(CO)NC(=O)[C@@H](NC(=O)[C@H](CC(=O)O)NC(=O)[C@H](CO)NC(=O)[C@@H](NC(=O)[C@](C)(Cc1ccccc1)NC(=O)[C@H](CO)NC(=O)CNC(=O)[C@H](CCC(=O)O)NC(=O)C(C)(C)NC(=O)[C@@H](N)Cc1c[nH]cn1)[C@@H](C)O)C(C)C)[C@@H](C)CC)C(=O)N[C@H](C(=O)N[C@H](C(=O)N[C@@H](CCC(=O)O)C(=O)NCC(=O)NCC(N)=O)C(C)C)C(C)C)C(=O)O [compound 465] (H-H[Aib]EGS[αMeF]TSDV[αMeS]SK([AEEA-AEEA-γGlu-Lauroyl])LEGEK([AEEA-AEEA-γGlu-Lauroyl])A[αMeK]EFIAK([AEEA-AEEA-γGlu-Lauroyl])VVEGG-NH2) | 117 | 101 | 133 | 20 | 20 | – | – |
| CCCCCCCCCCCC(=O)N[C@@H](CCC(=O)NCCOCCOCC(=O)NCCOCCOCC(=O)NCCCC[C@H](NC(=O)CNC(=O)[C@H](CCC(=O)O)NC(=O)[C@H](CCCCNC(=O)COCCOCCNC(=O)COCCOCCNC(=O)CC[C@H](NC(=O)CCCCCCCCCCC)C(=O)O)NC(=O)[C@H](Cc1ccc(O)cc1)NC(=O)[C@H](CO)NC(=O)[C@](C)(CO)NC(=O)[C@@H](NC(=O)[C@H](CC(=O)O)NC(=O)[C@H](CO)NC(=O)[C@@H](NC(=O)[C@](C)(Cc1ccccc1)NC(=O)[C@H](CO)NC(=O)CNC(=O)[C@H](CCC(=O)O)NC(=O)C(C)(C)NC(=O)[C@@H](N)Cc1c[nH]cn1)[C@@H](C)O)C(C)C)C(=O)N[C@@H](C)C(=O)N[C@@H](C)C(=O)N[C@@](C)(CCCCN)C(=O)N[C@@H](CCC(=O)O)C(=O)N[C@@H](Cc1ccccc1)C(=O)N[C@H](C(=O)N[C@@H](C)C(=O)N[C@@H](CCCCNC(=O)COCCOCCNC(=O)COCCOCCNC(=O)CC[C@H](NC(=O)CCCCCCCCCCC)C(=O)O)C(=O)N[C@H](C(=O)N[C@H](C(=O)N[C@@H](CCC(=O)O)C(=O)NCC(=O)NCC(N)=O)C(C)C)C(C)C)[C@@H](C)CC)C(=O)O [compound 468] (H-H[Aib]EGS[αMeF]TSDV[αMeS]SYK([AEEA-AEEA-γGlu-Lauroyl])EGK([AEEA-AEEA-γGlu-Lauroyl])AA[αMeK]EFIAK([AEEA-AEEA-γGlu-Lauroyl])VVEGG-NH2) | 73.5 | 62.4 | 84.5 | – | 20 | 20 | – |
| CCCCCCCCCCCC(=O)N[C@@H](CCC(=O)NCCOCCOCC(=O)NCCOCCOCC(=O)NCCCC[C@H](NC(=O)[C@H](C)NC(=O)[C@@H](NC(=O)[C@H](Cc1ccccc1)NC(=O)[C@H](CCCCNC(=O)COCCOCCNC(=O)COCCOCCNC(=O)CC[C@H](NC(=O)CCCCCCCCCCC)C(=O)O)NC(=O)[C@](C)(CCCCN)NC(=O)[C@H](C)NC(=O)[C@H](C)NC(=O)[C@H](CCC(=O)O)NC(=O)CNC(=O)[C@H](CCC(=O)O)NC(=O)[C@H](CCCCNC(=O)COCCOCCNC(=O)COCCOCCNC(=O)CC[C@H](NC(=O)CCCCCCCCCCC)C(=O)O)NC(=O)[C@H](Cc1ccc(O)cc1)NC(=O)[C@H](CO)NC(=O)[C@](C)(CO)NC(=O)[C@@H](NC(=O)[C@H](CC(=O)O)NC(=O)[C@H](CO)NC(=O)[C@@H](NC(=O)[C@](C)(Cc1ccccc1)NC(=O)[C@H](CO)NC(=O)CNC(=O)[C@H](CCC(=O)O)NC(=O)C(C)(C)NC(=O)[C@@H](N)Cc1c[nH]cn1)[C@@H](C)O)C(C)C)[C@@H](C)CC)C(=O)N[C@H](C(=O)N[C@H](C(=O)N[C@@H](CCC(=O)O)C(=O)NCC(=O)NCC(N)=O)C(C)C)C(C)C)C(=O)O [compound 470] (H-H[Aib]EGS[αMeF]TSDV[αMeS]SYK([AEEA-AEEA-γGlu-Lauroyl])EGEAA[αMeK]K([AEEA-AEEA-γGlu-Lauroyl])FIAK([AEEA-AEEA-γGlu-Lauroyl])VVEGG-NH2; N-terminus assumed) | 31.3 | 26 | 36.5 | – | – | 20 | 20 |
